The results in this text go back to patent publication US10793563B2, “GCN2 inhibitors and uses thereof” (Merck Patent GmbH, priority 2018, dated 2020).

One experiment addresses GCN2 kinase (Homo sapiens (Human), UniProt Q9P2K8). Put plainly: GCN2 Enzyme Inhibition Assay (Transcreener ADP2 fluorescence polarization). In kind it is biochemical. To be noted: 280 μM ATP, 200 μM (RS)7 peptide, 4 nM GCN2, 25° C.; for Ki: Ki(app). An outline of the steps: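 At 25 °C, GCN2 kinase (typical final concentration 4 nM) and (RS)7 peptide in Tris-HCl pH 7.5 buffer with MgCl2, NaCl and DTT were preincubated with compound for 10 min, then ATP was added for a 1 h reaction. ADP was read by FP with antibody/Alexa633 tracer. Non-linear tight-binding analysis gave IC50 and apparent Ki.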

Experiment [1] concerns the target intracellular GCN2 (phosphorylation of the GCN2 substrate eIF2α) (Homo sapiens (Human), UniProt Q9P2K8). Put plainly: GCN2 Cellular Inhibition Assay (AlphaScreen SureFire P-eIF2α Ser51, borrelidin-treated U2OS cells). In kind it is cell-based. To be noted: 10 μM borrelidin, 1 h, phosphorylated eIF2α Ser51, read-out: GCN2 Biomarker (IC50). An outline of the steps:
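Phospho-eIF2α (Ser51) measured by AlphaScreen SureFire in lysates of U2OS cells stimulated 1 h at 37 °C with 10 μM borrelidin alongside compound, 4-fold dilutions from 40 μM. Inhibition expressed as percent relative to borrelidin-alone controls.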
(Alpha assays give light when donor and acceptor beads are brought close together.)

Chain of intracellular GCN2 (phosphorylation of the GCN2 substrate eIF2α) (Q9P2K8 whole entry): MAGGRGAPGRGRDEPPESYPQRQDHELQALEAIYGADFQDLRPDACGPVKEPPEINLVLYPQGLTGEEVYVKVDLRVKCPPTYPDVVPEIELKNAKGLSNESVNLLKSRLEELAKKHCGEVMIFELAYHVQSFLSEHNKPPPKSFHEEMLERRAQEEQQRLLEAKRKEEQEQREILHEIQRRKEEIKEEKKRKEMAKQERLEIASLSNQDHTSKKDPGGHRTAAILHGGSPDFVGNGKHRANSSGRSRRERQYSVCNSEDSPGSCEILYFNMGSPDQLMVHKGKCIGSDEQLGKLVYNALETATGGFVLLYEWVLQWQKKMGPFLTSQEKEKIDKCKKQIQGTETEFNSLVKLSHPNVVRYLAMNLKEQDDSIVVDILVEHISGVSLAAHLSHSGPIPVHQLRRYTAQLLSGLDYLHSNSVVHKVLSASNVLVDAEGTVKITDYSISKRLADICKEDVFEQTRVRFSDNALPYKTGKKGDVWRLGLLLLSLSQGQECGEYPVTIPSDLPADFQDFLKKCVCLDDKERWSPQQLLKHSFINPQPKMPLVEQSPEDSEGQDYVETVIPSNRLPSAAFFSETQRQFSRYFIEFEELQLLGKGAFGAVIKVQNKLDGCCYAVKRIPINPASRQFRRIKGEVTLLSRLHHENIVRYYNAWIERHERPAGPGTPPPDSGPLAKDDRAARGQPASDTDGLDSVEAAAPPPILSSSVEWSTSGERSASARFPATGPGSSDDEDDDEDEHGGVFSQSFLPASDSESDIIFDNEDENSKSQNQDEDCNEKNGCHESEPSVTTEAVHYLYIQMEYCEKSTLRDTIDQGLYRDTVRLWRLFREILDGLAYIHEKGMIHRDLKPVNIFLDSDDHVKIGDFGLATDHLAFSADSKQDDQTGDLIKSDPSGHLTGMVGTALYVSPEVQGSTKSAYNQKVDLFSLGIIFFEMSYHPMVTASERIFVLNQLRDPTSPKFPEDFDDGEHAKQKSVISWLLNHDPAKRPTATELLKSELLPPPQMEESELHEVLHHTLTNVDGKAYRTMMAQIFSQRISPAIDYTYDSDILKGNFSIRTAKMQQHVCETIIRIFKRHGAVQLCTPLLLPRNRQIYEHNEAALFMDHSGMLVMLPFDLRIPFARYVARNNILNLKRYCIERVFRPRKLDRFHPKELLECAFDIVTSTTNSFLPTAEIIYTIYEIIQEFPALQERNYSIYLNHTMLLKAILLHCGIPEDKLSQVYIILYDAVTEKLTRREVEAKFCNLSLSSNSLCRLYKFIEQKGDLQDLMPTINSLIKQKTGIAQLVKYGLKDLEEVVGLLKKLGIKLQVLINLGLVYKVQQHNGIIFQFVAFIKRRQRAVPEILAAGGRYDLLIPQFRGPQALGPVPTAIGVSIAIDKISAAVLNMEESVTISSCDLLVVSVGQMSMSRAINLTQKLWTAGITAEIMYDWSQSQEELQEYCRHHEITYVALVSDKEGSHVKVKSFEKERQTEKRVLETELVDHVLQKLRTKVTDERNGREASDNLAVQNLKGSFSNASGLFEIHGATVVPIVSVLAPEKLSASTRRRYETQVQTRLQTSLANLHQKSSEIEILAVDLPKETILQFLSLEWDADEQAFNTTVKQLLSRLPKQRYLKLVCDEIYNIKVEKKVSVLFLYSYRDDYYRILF
Chain of GCN2 kinase (Q9P2K8 whole entry): as above

Broadly, the IC50 is the concentration needed to halve the response being measured. For `Cc1oncc1[C@H]1CN(c2ccnc(-c3cnc4ccc(C(F)(F)F)cn34)n2)C[C@@H](C)O1` [I-347, (2R,6S)-2-methyl-6-(5-methylisoxazol-4-yl)-4-(2-(6-(trifluoromethyl)imidazo[1,2-a]pyridin-3-yl)pyrimidin-4-yl)morpholine], the figures for the IC50 (against GCN2 kinase; in experiment [1]) were 100 to 1000 nM and 500 to 5000 nM, respectively.
Regarding `C[C@@H]1C[C@H](N=S(C)(C)=O)CN(c2ccnc(-c3cnc4cc(F)c(Br)cn34)n2)C1` [I-317, (((3 S,5R)-1-(2-(6-bromo-7-fluoroimidazo[1,2-a]pyridin-3-yl)pyrimidin-4-yl)-5-methylpiperidin-3-yl)imino)dimethyl-λ6-sulfanone], the figures for the IC50 (against GCN2 kinase; in experiment [1]) were 10 to 100 nM and 500 to 5000 nM, respectively.
Turning to `CC(C)(C)OC(=O)N1CC2(CCCN(c3ccnc(-c4cnc5ccc(C(F)(F)F)cn45)n3)C2)C1` [I-387, tert-butyl 6-(2-(6-(trifluoromethyl)imidazo[1,2-a]pyridin-3-yl)pyrimidin-4-yl)-2,6-diazaspiro[3.5]nonane-2-carboxylate], the IC50 on GCN2 kinase was in the range of 100 to 1000 nM; in experiment [1] it was 500 to 5000 nM.
Take `Cc1n[nH]cc1C1CC(O)CN(c2ccnc(-c3cnc4ccc(Cl)cn34)n2)C1` (stereo not shown) [I-302, 1-(2-(6-chloroimidazo[1,2-a]pyridin-3-yl)pyrimidin-4-yl)-5-(3-methyl-1H-pyrazol-4-yl)piperidin-3-ol]: the figures for the IC50 (against GCN2 kinase; in experiment [1]) were less than 10 nM and less than 500 nM, respectively.
As for `C[C@@H]1C[C@H](N=S(C)(C)=O)CN(c2ccnc(-c3cnc4ccc(C5CC5)cn34)n2)C1` [I-300, (((3 S,5R)-1-(2-(6-cyclopropylimidazo[1,2-a]pyridin-3-yl)pyrimidin-4-yl)-5-methylpiperidin-3-yl)imino)dimethyl-λ6-sulfanone], the IC50 at GCN2 kinase lay in the range of 10 to 100 nM; in experiment [1], 500 to 5000 nM.
The corresponding values for `NC(=O)C1(C2CCCN(c3ccnc(-c4cnc5ccc(Cl)cn45)n3)C2)CC1` (stereo not shown) [I-303, 1-(1-(2-(6-chloroimidazo[1,2-a]pyridin-3-yl)pyrimidin-4-yl)piperidin-3-yl)cyclopropane-1-carboxamide] are 10 to 100 nM and 500 to 5000 nM.
As for `CC(C)(C)OC(=O)N1CC2(CCCN(c3ccnc(-c4cnc5ccc(Cl)cn45)n3)C2)C1` [I-285, tert-butyl 6-(2-(6-chloroimidazo[1,2-a]pyridin-3-yl)pyrimidin-4-yl)-2,6-diazaspiro[3.5]nonane-2-carboxylate], the 50% inhibitory concentration (IC50) against GCN2 kinase was 100 to 1000 nM; in experiment [1], 500 to 5000 nM.
Turning to `C[C@H]1C[C@H](c2cn[nH]c2)CN(c2nccc(-c3cnc4ccc(Cl)cn34)n2)C1` (stereo in doubt) [I-198, 6-chloro-3-(2-((3S,5R)-3-methyl-5-(1H-pyrazol-4-yl)piperidin-1-yl)pyrimidin-4-yl)imidazo[1,2-a]pyridine], the half-inhibitory concentration (IC50) against GCN2 kinase was less than 10 nM; in experiment [1], 500 to 5000 nM.
On the same counts, the results for `NC(=O)[C@H]1CCCN(c2ncc(F)c(-c3cnc4ccc(C(F)(F)F)cn34)n2)C1` [I-219, (S)-1-(5-fluoro-4-(6-(trifluoromethyl)imidazo[1,2-a]pyridin-3-yl)pyrimidin-2-yl)piperidine-3-carboxamide] are 10 to 100 nM and 500 to 5000 nM.
The corresponding values for `FC(F)(F)CCN1CCN(c2ccnc(-c3cnc4ccc(C(F)(F)F)cn34)n2)CC1c1cn[nH]c1` (stereo not shown) [I-449, 3-(4-(3-(1H-pyrazol-4-yl)-4-(3,3,3-trifluoropropyl)piperazin-1-yl)pyrimidin-2-yl)-6-(trifluoromethyl)imidazo[1,2-a]pyridine] are less than 10 nM and less than 500 nM.
On the same counts, the results for `FC(F)(F)c1ccc2ncc(-c3nccc(N4CCN(CC5CC5)C(c5cn[nH]c5)C4)n3)n2c1` (stereo not shown) [I-369, 4-[4-(cyclopropylmethyl)-3-(1H-pyrazol-4-yl)piperazin-1-yl]-2-[6-(trifluoromethyl)imidazo[1,2-a]pyridin-3-yl]pyrimidine] are less than 10 nM and less than 500 nM.
On to `C[C@H]1[C@@H](CNS(C)(=O)=O)N(C2CC2)[C@@H](C)CN1c1ccnc(-c2cnc3ccc(C(F)(F)F)cn23)n1` (stereo in doubt) [I-491, N-(((2R,3 S,6S)-1-cyclopropyl-3,6-dimethyl-4-(2-(6-(trifluoromethyl)imidazo[1,2-a]pyridin-3-yl)pyrimidin-4-yl)piperazin-2-yl)methyl)methanesulfonamide], for which the IC50 is 10 to 100 nM against GCN2 kinase and less than 500 nM in experiment [1].
For `CS(=O)(=O)c1ccc2ncc(-c3nccc(N4CCCC(c5cn[nH]c5)C4)n3)n2c1` (stereo not shown) [I-313, 3-(4-(3-(1H-pyrazol-4-yl)piperidin-1-yl)pyrimidin-2-yl)-6-(methylsulfonyl)imidazo[1,2-a]pyridine], the half-maximal inhibitory concentration (IC50) was in the range of 10 to 100 nM on GCN2 kinase and 500 to 5000 nM in experiment [1].
Regarding `Cc1[nH]ncc1[C@@H]1CN(c2nccc(-c3cnc4ccc(Cl)cn34)n2)C[C@@H](C)O1` (stereo in doubt) [I-182, (2R,6R)-4-(4-(6-chloroimidazo[1,2-a]pyridin-3-yl)pyrimidin-2-yl)-2-methyl-6-(5-methyl-1H-pyrazol-4-yl)morpholine], the IC50 on GCN2 kinase is 10 to 100 nM; in experiment [1], less than 500 nM.
Consider `CC1(C)CC1CN1CCN(c2ccnc(-c3cnc4ccc(C(F)(F)F)cn34)n2)CC1c1cn[nH]c1` (stereo not shown) [I-477, 3-(4-(4-((2,2-dimethylcyclopropyl)methyl)-3-(1H-pyrazol-4-yl)piperazin-1-yl)pyrimidin-2-yl)-6-(trifluoromethyl)imidazo[1,2-a]pyridine], for which the IC50 against GCN2 kinase was 10 to 100 nM; in experiment [1] it was less than 500 nM.
The corresponding values for `C[C@@H]1C[C@H](N=S(C)(C)=O)CN(c2ccnc(-c3cnc4cc(Cl)c(Cl)cn34)n2)C1` [I-269, (((3 S,5R)-1-(2-(6,7-dichloroimidazo[1,2-a]pyridin-3-yl)pyrimidin-4-yl)-5-methylpiperidin-3-yl)imino)dimethyl-λ6-sulfanone] are 10 to 100 nM and 500 to 5000 nM.
At GCN2 kinase, `NC(=O)[C@H]1CCCN(c2ccnc(-c3cnc4cc(F)c(Cl)cn34)n2)C1` [I-48, (3S)-1-[2-(6-Chloro-7-fluoro-imidazo[1,2-a]pyridin-3-yl)pyrimidin-4-yl]piperidine-3-carboxamide] came in with a Ki of less than 10 nM. The IC50 in experiment [1] is less than 500 nM.
For the compound `Cc1cc(-c2cnc3ccc(Cl)cn23)nc(N2C[C@@H](C)O[C@H](c3cn[nH]c3C)C2)n1` [I-218, (2R,6R)-4-(4-(6-chloroimidazo[1,2-a]pyridin-3-yl)-6-methylpyrimidin-2-yl)-2-methyl-6-(5-methyl-1H-pyrazol-4-yl)morpholine], the values for the IC50 (at GCN2 kinase; in experiment [1]) were 10 to 100 nM and 500 to 5000 nM, respectively.
The corresponding values for `NC(=O)[C@@H]1CCCN(c2nc(-c3cnc4ccc(C(F)(F)F)cn34)ccc2F)C1` [I-260, (R)-1-(3-fluoro-6-(6-(trifluoromethyl)imidazo[1,2-a]pyridin-3-yl)pyridin-2-yl)piperidine-3-carboxamide] are less than 10 nM and less than 500 nM.
Regarding `CC1CN(c2nccc(-c3cnc4ccc(C(F)(F)F)cn34)n2)C(C)C(c2cn[nH]c2)N1` (single isomer, unassigned) [I-33, 3-[2-[2,5-Dimethyl-3-(1H-pyrazol-4-yl)piperazin-1-yl]pyrimidin-4-yl]-6-(trifluoromethyl)imidazo[1,2-a]pyridine], the Ki on GCN2 kinase was 10 to 100 nM. For the same compound, in experiment [1], the IC50 is more than 5000 nM.
On the same counts, the results for `Clc1ccc2ncc(-c3nccc(N4CCCC(c5cnoc5)C4)n3)n2c1` (stereo not shown) [I-65, 6-Chloro-3-[4-(3-isoxazol-4-yl-piperidin-1-yl)-pyrimidin-2-yl]-imidazo[1,2-a]pyridine] are 10 to 100 nM and 500 to 5000 nM.
In turn, `CS(=O)(=O)NC[C@@H]1CN(c2ccnc(-c3cnc4ccc(C(F)F)cn34)n2)CCO1` [I-13, N-[[(2S)-4-[2-[6-(Difluoromethyl)imidazo[1,2-a]pyridin-3-yl]pyrimidin-4-yl]morpholin-2-yl]methyl]methanesulfonamide] registered a Ki on GCN2 kinase of less than 10 nM. Besides, the IC50 in experiment [1] lay in the range of 500 to 5000 nM.
As for `C[C@@H]1CN(c2nccc(-c3cnc4cc(F)c(Cl)cn34)n2)C[C@@H](c2cn[nH]c2)O1` [I-274, (2R,6R)-4-(4-(6-chloro-7-fluoroimidazo[1,2-a]pyridin-3-yl)pyrimidin-2-yl)-2-methyl-6-(1H-pyrazol-4-yl)morpholine], the results for the IC50 (against GCN2 kinase; in experiment [1]) were 10 to 100 nM and 500 to 5000 nM, respectively.
The corresponding values for `CC(C)(C)c1ncc(CN2CCN(c3ccnc(-c4cnc5ccc(C(F)(F)F)cn45)n3)CC2c2cn[nH]c2)[nH]1` (stereo not shown) [I-373, 3-(4-(4-((2-(tert-butyl)-1H-imidazol-5-yl)methyl)-3-(1H-pyrazol-4-yl)piperazin-1-yl)pyrimidin-2-yl)-6-(trifluoromethyl)imidazo[1,2-a]pyridine] are less than 10 nM and less than 500 nM.
The corresponding values for `CCOC1(N2CCN(c3ccnc(-c4cnc5ccc(C(F)(F)F)cn45)n3)C(C)C2c2cn[nH]c2)CC1` (stereo not shown) [I-348, 3-(4-(4-(1-ethoxycyclopropyl)-2-methyl-3-(1H-pyrazol-4-yl)piperazin-1-yl)pyrimidin-2-yl)-6-(trifluoromethyl)imidazo[1,2-a]pyridine] are 10 to 100 nM and less than 500 nM.
On to `C[C@@H](NS(C)(=O)=O)[C@H]1CN(c2ccnc(-c3cnc4ccc(C(F)(F)F)cn34)n2)CCO1` [I-406, N—((R)-1-((R)-4-(2-(6-(trifluoromethyl)imidazo[1,2-a]pyridin-3-yl)pyrimidin-4-yl)morpholin-2-yl)ethyl)methanesulfonamide], for which the IC50 against GCN2 kinase is 10 to 100 nM; in experiment [1] it was 500 to 5000 nM.
